In assay [1] the target is Galectin-3 (Homo sapiens) (UniProt P17931). Description: Inhibition of Galectin3.
The target of assay [2] is Galectin-1 (Homo sapiens) (UniProt P09382). Description: Inhibition of Galectin1.

In ChEMBL document CHEMBL1139020, “Aryl O- and S-galactosides and lactosides as specific inhibitors of human galectins-1 and -3: role of electrostatic potential at O-3” (Bioorg Med Chem Lett, 2006) one finds Activity data, which are given here for 16 compounds.

A value given as a limit tells only on which side of the number the result lay.

Galectin-3 (Homo sapiens), sequence (P17931 whole entry): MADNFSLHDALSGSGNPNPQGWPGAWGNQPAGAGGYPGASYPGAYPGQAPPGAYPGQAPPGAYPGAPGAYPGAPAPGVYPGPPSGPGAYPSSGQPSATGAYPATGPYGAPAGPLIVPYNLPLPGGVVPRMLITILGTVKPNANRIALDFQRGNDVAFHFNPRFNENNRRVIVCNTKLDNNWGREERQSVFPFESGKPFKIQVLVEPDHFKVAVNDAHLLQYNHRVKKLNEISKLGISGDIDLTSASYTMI
Galectin-1 (Homo sapiens), sequence (P09382 whole entry): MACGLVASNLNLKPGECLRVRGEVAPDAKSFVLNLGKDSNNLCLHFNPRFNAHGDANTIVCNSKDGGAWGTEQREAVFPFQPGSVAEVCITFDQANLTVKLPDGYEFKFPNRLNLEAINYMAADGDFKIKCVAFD

In the case of `CC(=O)OC[C@H]1O[C@@H](Sc2ccc(Br)cc2)[C@H](OC(C)=O)[C@@H](OC(C)=O)[C@@H]1O[C@@H]1O[C@H](CO)[C@H](O)[C@H](O)[C@H]1O`, the Activity in assay [1] and in assay [2] was 0.313 mM throughout.
For `O=S(=O)(c1ccc2ccccc2c1)[C@@H]1O[C@H](CO)[C@@H](O[C@@H]2O[C@H](CO)[C@H](O)[C@H](O)[C@H]2O)[C@H](O)[C@H]1O`, the Activity in assay [1] was found to be 0.313 mM; in assay [2] it was 0.04 mM.
With `CC(=O)OC[C@H]1O[C@@H](Oc2ccccc2[N+](=O)[O-])[C@H](OC(C)=O)[C@@H](OC(C)=O)[C@H]1O`, the Activity in assay [1] and in assay [2] was more than 5 mM each time.
With `COc1ccc(S[C@@H]2O[C@H](COC(C)=O)[C@H](O)[C@H](OC(C)=O)[C@H]2OC(C)=O)cc1`, the Activity in assay [1] is 2.5 mM; in assay [2], more than 5 mM.
Consider `O=C[C@H](O)[C@@H](O)[C@@H](O)[C@H](O)CO`, for which the Activity in assay [1] and in assay [2] was 50 mM in each case.
With `CC(=O)OC[C@H]1O[C@@H](Sc2ccc3ccccc3c2)[C@H](OC(C)=O)[C@@H](OC(C)=O)[C@@H]1O[C@@H]1O[C@H](CO)[C@H](O)[C@H](O)[C@H]1O`, the Activity in assay [1] and in assay [2] was 0.313 mM in each case.
As for `CC(=O)OC[C@H]1O[C@@H](Sc2ccc([N+](=O)[O-])cc2)[C@H](OC(C)=O)[C@@H](OC(C)=O)[C@H]1O`, the Activity in assay [1] is more than 5 mM; in assay [2], 2.5 mM.
Take LACTOSE, ANHYDROUS: the Activity in assay [1] and in assay [2] was 0.8 mM each time.
Consider `CC(=O)OC[C@H]1O[C@@H](Oc2ccccc2[N+](=O)[O-])[C@H](OC(C)=O)[C@@H](OC(C)=O)[C@@H]1O[C@@H]1O[C@H](CO)[C@H](O)[C@H](O)[C@H]1O`, for which the Activity in assay [1] was 0.625 mM; in assay [2], 0.08 mM.
The matching figures for `CC(=O)OC[C@H]1O[C@@H](Sc2ccc([N+](=O)[O-])cc2)[C@H](OC(C)=O)[C@@H](OC(C)=O)[C@@H]1O[C@@H]1O[C@H](CO)[C@H](O)[C@H](O)[C@H]1O`: 0.313 mM and 0.313 mM.
For `COc1ccc(S(=O)(=O)[C@@H]2O[C@H](CO)[C@H](O)[C@H](O)[C@H]2O)cc1` the same measures were more than 5 mM and more than 5 mM.
The matching figures for `CC(=O)OC[C@H]1O[C@@H](Sc2ccc3ccccc3c2)[C@H](OC(C)=O)[C@@H](OC(C)=O)[C@H]1O`: 5 mM and 5 mM.
On to `O=S(=O)(c1ccc(Br)cc1)[C@@H]1O[C@H](CO)[C@@H](O[C@@H]2O[C@H](CO)[C@H](O)[C@H](O)[C@H]2O)[C@H](O)[C@H]1O`, for which the Activity in assay [1] and in assay [2] was 0.313 mM each time.
For `CC(=O)OC[C@H]1O[C@@H](Oc2ccc([N+](=O)[O-])cc2)[C@H](OC(C)=O)[C@@H](OC(C)=O)[C@H]1O`, the Activity in assay [1] and in assay [2] was 10 mM in each case.
On to `COc1ccc(S[C@@H]2O[C@H](COC(C)=O)[C@@H](O[C@@H]3O[C@H](CO)[C@H](O)[C@H](O)[C@H]3O)[C@H](OC(C)=O)[C@H]2OC(C)=O)cc1`, for which the Activity in assay [1] and in assay [2] was 0.313 mM throughout.
As to `CC(=O)OC[C@H]1O[C@@H](Oc2ccc([N+](=O)[O-])cc2)[C@H](OC(C)=O)[C@@H](OC(C)=O)[C@@H]1O[C@@H]1O[C@H](CO)[C@H](O)[C@H](O)[C@H]1O`, the Activity amounted to 0.625 mM in assay [1] and 0.313 mM in assay [2].
